# Data: PubChem BioAssay AID2060505 (Molecular Pharmacology Branch, DTP, NCI, 2025)
# Test system: 633275-114-R-J1-PDC complex spheroids, viability
# Experiment: Anticancer human tumor 633275-114-R-J1-PDC patient-derived endometrial adenocarcinoma cell line growth inhibition [GQUAD]
# Conditions: for IC50: curve of first compound; for viability, T/C: stronger effect = lower value
# Summary of the method: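 Multi-cell-type spheroids of tumor cells with HUVEC and mesenchymal stem cells, treated with drug combinations. Concentrations descend in half-log steps from near clinical Cmax, or from 10 microM where Cmax is unknown; viability read-out.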
# [1] = second compound 0.0316 µM, first compound 0.0316 µM
# [2] = second compound 0.0316 µM, first compound 0.1 µM
# [3] = second compound 0.0316 µM, first compound 0.316 µM
# [4] = second compound 0.0316 µM, first compound 1 µM
# [5] = second compound 0.0316 µM, first compound 3.16 µM
# [6] = second compound 0.0316 µM, first compound 10 µM
# [7] = second compound 0.1 µM, first compound 0.0316 µM
# [8] = second compound 0.1 µM, first compound 0.1 µM
# [9] = second compound 0.1 µM, first compound 0.316 µM
# [10] = second compound 0.1 µM, first compound 1 µM
# [11] = second compound 0.1 µM, first compound 3.16 µM
# [12] = second compound 0.1 µM, first compound 10 µM
# [13] = second compound 0.316 µM, first compound 0.0316 µM
# [14] = second compound 0.316 µM, first compound 0.1 µM
# [15] = second compound 0.316 µM, first compound 0.316 µM
# [16] = second compound 0.316 µM, first compound 1 µM
# [17] = second compound 0.316 µM, first compound 3.16 µM
# [18] = second compound 0.316 µM, first compound 10 µM
# [19] = second compound 1 µM, first compound 0.0316 µM
# [20] = second compound 1 µM, first compound 0.1 µM
# [21] = second compound 1 µM, first compound 0.316 µM
# [22] = second compound 1 µM, first compound 1 µM
# [23] = second compound 1 µM, first compound 3.16 µM
# [24] = second compound 1 µM, first compound 10 µM
# [25] = second compound 3.16 µM, first compound 0.0316 µM
# [26] = second compound 3.16 µM, first compound 0.1 µM
# [27] = second compound 3.16 µM, first compound 0.316 µM
# [28] = second compound 3.16 µM, first compound 1 µM
# [29] = second compound 3.16 µM, first compound 3.16 µM
# [30] = second compound 3.16 µM, first compound 10 µM
# [31] = second compound 10 µM, first compound 0.0316 µM
# [32] = second compound 10 µM, first compound 0.1 µM
# [33] = second compound 10 µM, first compound 0.316 µM
# [34] = second compound 10 µM, first compound 1 µM
# [35] = second compound 10 µM, first compound 3.16 µM
# [36] = second compound 10 µM, first compound 10 µM
# 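Note: spheroids exposed to the agents for seven days.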
# 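Throughout, for viability, T/C: percent of DMSO vehicle control viability which is 100%.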
smiles,measurement,setting,value
O=C(NO)c1cnc(N2CCN(S(=O)(=O)c3ccc4ccccc4c3)CC2)nc1 + Cc1cnc(CNC(=O)c2c(=O)c3ccc(N4CCCN(C)CC4)nc3n3c2sc2ccccc23)cn1,IC50,second compound 0.0316 µM,109 nM
same,IC50,second compound 0.1 µM,< 31.6 nM
same,IC50,second compound 0.316 µM,< 31.6 nM
same,IC50,second compound 1 µM,< 31.6 nM
same,IC50,second compound 3.16 µM,< 31.6 nM
same,IC50,second compound 10 µM,< 31.6 nM
same,"viability, T/C",[1],54%
same,"viability, T/C",[2],53.5%
same,"viability, T/C",[3],33.2%
same,"viability, T/C",[4],15.1%
same,"viability, T/C",[5],12.3%
same,"viability, T/C",[6],4.21%
same,"viability, T/C",[7],48.3%
same,"viability, T/C",[8],42.8%
same,"viability, T/C",[9],31%
same,"viability, T/C",[10],16.3%
same,"viability, T/C",[11],10.7%
same,"viability, T/C",[12],4.01%
same,"viability, T/C",[13],40.8%
same,"viability, T/C",[14],42.9%
same,"viability, T/C",[15],23.7%
same,"viability, T/C",[16],14.1%
same,"viability, T/C",[17],7.68%
same,"viability, T/C",[18],1.96%
same,"viability, T/C",[19],40.4%
same,"viability, T/C",[20],36.3%
same,"viability, T/C",[21],22.4%
same,"viability, T/C",[22],7.98%
same,"viability, T/C",[23],3.91%
same,"viability, T/C",[24],0.11%
same,"viability, T/C",[25],37.8%
same,"viability, T/C",[26],34.1%
same,"viability, T/C",[27],20.5%
same,"viability, T/C",[28],0.25%
same,"viability, T/C",[29],0.07%
same,"viability, T/C",[30],0.11%
same,"viability, T/C",[31],31.9%
same,"viability, T/C",[32],27.6%
same,"viability, T/C",[33],21.5%
same,"viability, T/C",[34],0.17%
same,"viability, T/C",[35],0.14%
same,"viability, T/C",[36],0.18%
O=C(NO)c1cnc(N2CCN(S(=O)(=O)c3ccc4ccccc4c3)CC2)nc1 + CN(C)c1ccc(Nc2c3ccc(NC(=O)CCN4CCCC4)cc3nc3cc(NC(=O)CCN4CCCC4)ccc23)cc1,IC50,second compound 0.0316 µM,206 nM
same,IC50,second compound 0.1 µM,150 nM
same,IC50,second compound 0.316 µM,170 nM
same,IC50,second compound 1 µM,158 nM
same,IC50,second compound 3.16 µM,138 nM
same,IC50,second compound 10 µM,< 31.6 nM
same,"viability, T/C",[1],75.1%
same,"viability, T/C",[2],64.9%
same,"viability, T/C",[3],40.4%
same,"viability, T/C",[4],22.8%
same,"viability, T/C",[5],11.5%
same,"viability, T/C",[6],4.89%
same,"viability, T/C",[7],68.3%
same,"viability, T/C",[8],58.4%
same,"viability, T/C",[9],35.5%
same,"viability, T/C",[10],19.6%
same,"viability, T/C",[11],10.5%
same,"viability, T/C",[12],5.36%
same,"viability, T/C",[13],80.9%
same,"viability, T/C",[14],62%
same,"viability, T/C",[15],35.7%
same,"viability, T/C",[16],20.1%
same,"viability, T/C",[17],12.1%
same,"viability, T/C",[18],4.98%
same,"viability, T/C",[19],70.1%
same,"viability, T/C",[20],58.3%
same,"viability, T/C",[21],37.9%
same,"viability, T/C",[22],18.3%
same,"viability, T/C",[23],12.2%
same,"viability, T/C",[24],5.49%
same,"viability, T/C",[25],62.6%
same,"viability, T/C",[26],55%
same,"viability, T/C",[27],37.5%
same,"viability, T/C",[28],15.6%
same,"viability, T/C",[29],9.85%
same,"viability, T/C",[30],2.65%
same,"viability, T/C",[31],30.4%
same,"viability, T/C",[32],26.4%
same,"viability, T/C",[33],16.3%
same,"viability, T/C",[34],6.49%
same,"viability, T/C",[35],1.21%
same,"viability, T/C",[36],0.19%
Nc1ccn(C2OC(CO)C(O)C2(F)F)c(=O)n1 (stereo not drawn) + Cc1cnc(CNC(=O)c2c(=O)c3ccc(N4CCCN(C)CC4)nc3n3c2sc2ccccc23)cn1,IC50,second compound 0.0316 µM,< 31.6 nM
same,IC50,second compound 0.1 µM,< 31.6 nM
same,IC50,second compound 0.316 µM,< 31.6 nM
same,IC50,second compound 1 µM,< 31.6 nM
same,IC50,second compound 3.16 µM,< 31.6 nM
same,IC50,second compound 10 µM,< 31.6 nM
same,"viability, T/C",[1],26.8%
same,"viability, T/C",[2],22.2%
same,"viability, T/C",[3],21.5%
same,"viability, T/C",[4],21.3%
same,"viability, T/C",[5],20.6%
same,"viability, T/C",[6],19.9%
same,"viability, T/C",[7],27.8%
same,"viability, T/C",[8],23.1%
same,"viability, T/C",[9],22.4%
same,"viability, T/C",[10],19.9%
same,"viability, T/C",[11],24.2%
same,"viability, T/C",[12],19.5%
same,"viability, T/C",[13],24.7%
same,"viability, T/C",[14],25.8%
same,"viability, T/C",[15],22.4%
same,"viability, T/C",[16],22.9%
same,"viability, T/C",[17],21.9%
same,"viability, T/C",[18],19.5%
same,"viability, T/C",[19],25.5%
same,"viability, T/C",[20],23.8%
same,"viability, T/C",[21],22.7%
same,"viability, T/C",[22],24%
same,"viability, T/C",[23],23%
same,"viability, T/C",[24],19.4%
same,"viability, T/C",[25],25.7%
same,"viability, T/C",[26],23.6%
same,"viability, T/C",[27],21.7%
same,"viability, T/C",[28],22%
same,"viability, T/C",[29],21.5%
same,"viability, T/C",[30],20.9%
same,"viability, T/C",[31],26.6%
same,"viability, T/C",[32],22.3%
same,"viability, T/C",[33],22.6%
same,"viability, T/C",[34],23.3%
same,"viability, T/C",[35],20.7%
same,"viability, T/C",[36],17.9%
COc1cccc2c1C(=O)c1c(O)c3c(c(O)c1C2=O)CC(O)(C(=O)CO)CC3OC1CC(N)C(O)C(C)O1 (stereo not drawn) + CN(C)c1ccc(Nc2c3ccc(NC(=O)CCN4CCCC4)cc3nc3cc(NC(=O)CCN4CCCC4)ccc23)cc1,IC50,second compound 0.0316 µM,91.8 nM
same,IC50,second compound 0.1 µM,77.9 nM
same,IC50,second compound 0.316 µM,73.2 nM
same,IC50,second compound 1 µM,65.5 nM
same,IC50,second compound 3.16 µM,47.1 nM
same,IC50,second compound 10 µM,< 31.6 nM
same,"viability, T/C",[1],62.9%
same,"viability, T/C",[2],48.1%
same,"viability, T/C",[3],32%
same,"viability, T/C",[4],20.6%
same,"viability, T/C",[5],1.62%
same,"viability, T/C",[6],2.01%
same,"viability, T/C",[7],62.7%
same,"viability, T/C",[8],45%
same,"viability, T/C",[9],31%
same,"viability, T/C",[10],18.3%
same,"viability, T/C",[11],1.63%
same,"viability, T/C",[12],2.02%
same,"viability, T/C",[13],63.6%
same,"viability, T/C",[14],43.5%
same,"viability, T/C",[15],30.1%
same,"viability, T/C",[16],18.9%
same,"viability, T/C",[17],2.31%
same,"viability, T/C",[18],1.97%
same,"viability, T/C",[19],59.1%
same,"viability, T/C",[20],42%
same,"viability, T/C",[21],33.6%
same,"viability, T/C",[22],15.2%
same,"viability, T/C",[23],3.04%
same,"viability, T/C",[24],1.66%
same,"viability, T/C",[25],56.9%
same,"viability, T/C",[26],35.7%
same,"viability, T/C",[27],29.4%
same,"viability, T/C",[28],16.1%
same,"viability, T/C",[29],2.59%
same,"viability, T/C",[30],1.1%
same,"viability, T/C",[31],25.3%
same,"viability, T/C",[32],17.3%
same,"viability, T/C",[33],10%
same,"viability, T/C",[34],7.22%
same,"viability, T/C",[35],0.49%
same,"viability, T/C",[36],0.61%
